What was measured:
Assay type in all cases: functional, cell-based
[1] = system: A549; assay: Cytotoxicity against human A549 cells after 72 hrs by sulforhodamine B assay; settings: A549, 72 h
[2] = system: K562; assay: Cytotoxicity against human K562 cells after 72 hrs by sulforhodamine B assay; settings: K562, 72 h
[3] = system: HT-29; assay: Cytotoxicity against human HT29 cells after 72 hrs by sulforhodamine B assay; settings: HT-29, 72 h

Measured: IC50

C[C@@H]([C@@H](O)[C@@H]1C[C@@H](C)C(=O)O1)[C@H]1[C@@H](O)[C@H](O)[C@]2(O)[C@@H]3C[C@H]4C(C)(C)O[C@@H]5CC(=O)O[C@@]54CC[C@@]3(O)CC[C@]12C [PRPINDILACETONES H]
> 100 µM: [1] | [2] | [3]

CC(=O)O[C@@H]1C[C@]2(O)CC[C@]34OC(=O)C[C@H]3OC(C)(C)[C@@H]4C[C@H]2[C@]23O[C@H]2C[C@H]([C@@H](C)[C@H]2CC=C(C)C(=O)O2)[C@@]13C [PRPINDILACETONES J]
> 100 µM: [1] | [2] | [3]

C[C@@H]([C@@H](O)[C@@H]1C[C@@H](C)C(=O)O1)[C@H]1C[C@H](O)[C@]2(O)[C@@H]3C[C@H]4C(C)(C)O[C@@H]5CC(=O)O[C@@]54CC[C@@]3(O)CC[C@]12C [PRPINDILACETONES I]
> 100 µM: [1] | [2] | [3]

— ChEMBL document CHEMBL1155085, “Propindilactones E-J, Schiartane Nortriterpenoids from Schisandra propinqua var. propinqua” (J Nat Prod, 2008)
